Among the data in patent US20250346585A1 (Alexion Pharmaceuticals, Inc., priority 2022, published 2025) are IC50 values, retold here.

Sequence of Human complement C1s enzyme (P09871 438-688 limits assumed): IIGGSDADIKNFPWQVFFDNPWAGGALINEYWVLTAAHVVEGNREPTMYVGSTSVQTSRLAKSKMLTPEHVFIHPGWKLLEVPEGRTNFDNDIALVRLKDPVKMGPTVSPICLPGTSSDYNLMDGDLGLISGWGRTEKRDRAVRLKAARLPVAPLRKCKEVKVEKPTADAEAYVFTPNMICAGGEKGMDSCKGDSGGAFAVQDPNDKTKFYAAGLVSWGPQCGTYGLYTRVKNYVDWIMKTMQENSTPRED
Sequence of Human complement C1s enzyme (P09871 16-437 partner limits assumed): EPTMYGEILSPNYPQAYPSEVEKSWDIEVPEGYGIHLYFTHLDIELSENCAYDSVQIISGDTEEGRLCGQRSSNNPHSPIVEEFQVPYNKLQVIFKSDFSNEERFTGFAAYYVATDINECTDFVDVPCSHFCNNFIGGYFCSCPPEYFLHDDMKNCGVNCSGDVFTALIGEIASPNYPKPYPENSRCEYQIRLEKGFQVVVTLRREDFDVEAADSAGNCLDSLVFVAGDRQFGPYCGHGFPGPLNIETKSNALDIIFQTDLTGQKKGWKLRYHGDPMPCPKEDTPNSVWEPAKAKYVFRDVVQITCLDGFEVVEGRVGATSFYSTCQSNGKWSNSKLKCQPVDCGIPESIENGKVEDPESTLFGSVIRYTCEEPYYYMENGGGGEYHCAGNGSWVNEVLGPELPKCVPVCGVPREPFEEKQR

The assay deals with Human complement C1s enzyme (Homo sapiens (Human), UniProt P09871). Put plainly: Human C1s enzyme assay. It is filed as biochemical. The note with it: Human C1s enzyme assay of Example 3; read-out: IC50 (Stars). The procedure, abridged:
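IC50 derived by nonlinear regression of rate versus concentration, with rate taken from A405 kinetics (30 s intervals, 30 min) after adding 100 μM each Z-L-Lys-SBzl and DTNB. C1s from human serum, 1.16 nM, exposed to compound for 5 min at RT beforehand; buffer 50 mM Tris, 1 M NaCl, pH 7.5.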
By IC50 is commonly meant the point on the concentration scale where inhibition reaches its midpoint. `C[C@@H](NC(=O)[C@@H]1CC2(CN1C(=O)CNC(=O)c1ccc3c(c1)-c1ccccc1C3(C)C)OCCO2)c1cc(C(=N)N)cs1` [Compound 94, (S)—N—((R)-1-(4-carbamimidoylthiophen-2-yl)ethyl)-7-((9,9-dimethyl-9H-fluorene-3-carbonyl)glycyl)-1,4-dioxa-7-azaspiro[4.4]nonane-8-carboxamide]: the IC50 is below 100 nM.
Then `C[C@@H](NC(=O)[C@@H]1CC2(CN1C(=O)CNC(=O)c1ccc3c(c1)-c1ccccc1-3)OCCO2)c1cc(C(=N)N)cs1` [Compound 95, (S)-7-((biphenylene-2-carbonyl)glycyl)-N—((R)-1-(4-carbamimidoylthiophen-2-yl)ethyl)-1,4-dioxa-7-azaspiro[4.4]nonane-8-carboxamide], with below 100 nM; and `C[C@@H](NC(=O)[C@@H]1CC2(CN1C(=O)CNC(=O)c1ccc3c(c1)-c1ccccc1C3(F)F)OCCO2)c1cc(-c2c[nH]cn2)cs1` [Compound 96, (S)—N—((R)-1-(4-(1H-imidazol-4-yl)thiophen-2-yl)ethyl)-7-((9,9-difluoro-9H-fluorene-3-carbonyl)glycyl)-1,4-dioxa-7-azaspiro[4.4]nonane-8-carboxamide], with 100 to 1000 nM; and `C[C@@H](NC(=O)[C@@H]1CC2(CN1C(=O)CNC(=O)c1ccc3c(c1)-c1ccccc1C3(F)F)OCCO2)c1cc(-c2cc[nH]n2)cs1` [Compound 97, (S)—N—((R)-1-(4-(1H-pyrazol-3-yl)thiophen-2-yl)ethyl)-7-((9,9-difluoro-9H-fluorene-3-carbonyl)glycyl)-1,4-dioxa-7-azaspiro[4.4]nonane-8-carboxamide], with above 1000 nM.
For the compound `C[C@@H](NC(=O)[C@@H]1C[C@H](C2CCCCC2)CN1C(=O)CNC(=O)c1ccc2c(c1)-c1ccccc1C2(F)F)c1cc(C(=N)N)cs1` [Compound 98, (2S,4R)—N—((R)-1-(4-carbamimidoylthiophen-2-yl)ethyl)-4-cyclohexyl-1-((9,9-difluoro-9H-fluorene-3-carbonyl)glycyl)pyrrolidine-2-carboxamide], the IC50 is below 100 nM.
In the case of `CC1c2ccccc2-c2cc(C(=O)NCC(=O)N3CC4(C[C@H]3C(=O)N[C@H](C)c3cc(C(=N)N)cs3)OCCO4)ccc21` (stereo partly drawn) [Compound 99, (8S)—N-[(1R)-1-(4-carbamimidoylthiophen-2-yl)ethyl]-7-{2-[(9-methyl-9H-fluoren-3-yl)formamido]acetyl}-1,4-dioxa-7-azaspiro[4.4]nonane-8-carboxamide], the IC50 was below 100 nM.
As for `C[C@@H](NC(=O)[C@@H]1CC2(CN1C(=O)CNC(=O)c1ccc3c(c1)-c1ccccc1C3(F)F)OCCO2)c1cc(-c2cnc(N)nc2)cs1` [Compound 100, (S)—N—((R)-1-(4-(2-aminopyrimidin-5-yl)thiophen-2-yl)ethyl)-7-((9,9-difluoro-9H-fluorene-3-carbonyl)glycyl)-1,4-dioxa-7-azaspiro[4.4]nonane-8-carboxamide], the 50% inhibitory concentration (IC50) is above 1000 nM.
Regarding `C[C@@H](NC(=O)[C@@H]1CC2(CN1C(=O)CNC(=O)c1ccc(-c3ccc(F)cc3)cc1)OCCO2)c1cc(C(=N)N)cs1` [Compound 101, (S)—N—((R)-1-(4-carbamimidoylthiophen-2-yl)ethyl)-7-((4′-fluoro-[1,1′-biphenyl]-4-carbonyl)glycyl)-1,4-dioxa-7-azaspiro[4.4]nonane-8-carboxamide], the IC50 is below 100 nM.
Then `Cc1ccc(-c2cnc(C(=O)NCC(=O)N3CC4(C[C@H]3C(=O)NCc3cc(C(=N)N)cs3)OCCO4)c(F)c2)cc1` [Compound 102, (S)—N-((4-carbamimidoylthiophen-2-yl)methyl)-7-((3-fluoro-5-(p-tolyl)picolinoyl)glycyl)-1,4-dioxa-7-azaspiro[4.4]nonane-8-carboxamide], with below 100 nM.
To `Nc1cccc(-c2csc(CNC(=O)[C@@H]3CC4(CN3C(=O)CNC(=O)c3ccc(Oc5ccc(F)cc5)cc3)OCCO4)c2)n1` [Compound 103, (S)—N-((4-(6-aminopyridin-2-yl)thiophen-2-yl)methyl)-7-((4-(4-fluorophenoxy)benzoyl)glycyl)-1,4-dioxa-7-azaspiro[4.4]nonane-8-carboxamide] belongs above 1000 nM; to `Cn1ccc2cc(-c3ccc(C(=O)NCC(=O)N4CC5(C[C@H]4C(=O)NCc4cc(C(=N)N)cs4)OCCO5)cc3)ccc21` [Compound 104, (S)—N-((4-carbamimidoylthiophen-2-yl)methyl)-7-((4-(1-methyl-1H-indol-5-yl)benzoyl)glycyl)-1,4-dioxa-7-azaspiro[4.4]nonane-8-carboxamide], below 100 nM; to `N=C(N)c1csc(CNC(=O)[C@@H]2CC3(CN2C(=O)CNC(=O)c2ncc(-c4ccccc4)cc2F)OCCO3)c1` [Compound 105, (S)—N-((4-carbamimidoylthiophen-2-yl)methyl)-7-((3-fluoro-5-phenylpicolinoyl)glycyl)-1,4-dioxa-7-azaspiro[4.4]nonane-8-carboxamide], below 100 nM.
To `C[C@@H](NC(=O)[C@@H]1C[C@](F)(COCCNC(=O)CC[C@H](NC(=O)CCCCCCCCCCCCCCCCC(=O)O)C(=O)O)CN1C(=O)CNC(=O)c1ccc(Oc2ccc(F)cc2)cc1)c1cc(C(=N)N)cs1` [Compound 106, 18-(((S)-4-((2-(((3R,5S)-5-(((R)-1-(4-carbamimidoylthiophen-2-yl)ethyl)carbamoyl)-3-fluoro-1-((4-(4-fluorophenoxy)benzoyl)glycyl)pyrrolidin-3-yl)methoxy)ethyl)amino)-1-carboxy-4-oxobutyl)amino)-18-oxooctadecanoic acid] belongs below 100 nM; to `N=C(N)c1csc(CNC(=O)[C@@H]2CC3(CN2C(=O)CNC(=O)c2ccc(-c4ccc(F)cc4F)cc2)OCCO3)c1` [Compound 107, (S)—N-((4-carbamimidoylthiophen-2-yl)methyl)-7-((2′,4′-difluoro-[1,1′-biphenyl]-4-carbonyl)glycyl)-1,4-dioxa-7-azaspiro[4.4]nonane-8-carboxamide], below 100 nM; to `Cc1ccc(-c2ccc(C(=O)NCC(=O)N3CC4(C[C@H]3C(=O)NCc3cc(C(=N)N)cs3)OCCO4)cc2)cc1` [Compound 108, (S)—N-((4-carbamimidoylthiophen-2-yl)methyl)-7-((4′-methyl-[1,1′-biphenyl]-4-carbonyl)glycyl)-1,4-dioxa-7-azaspiro[4.4]nonane-8-carboxamide], below 100 nM.
`C[C@@H](NC(=O)[C@@H]1CC2(CN1C(=O)CNC(=O)c1cccc(-c3ccccc3)c1)OCCO2)c1cc(C(=N)N)cs1` [Compound 109, (S)-7-(([1,1′-biphenyl]-3-carbonyl)glycyl)-N—((R)-1-(4-carbamimidoylthiophen-2-yl)ethyl)-1,4-dioxa-7-azaspiro[4.4]nonane-8-carboxamide]: the 50% inhibitory concentration (IC50) was below 100 nM.
For `CC1c2ccccc2-c2cc(C(=O)NCC(=O)N3CC4(C[C@H]3C(=O)NCc3cc(C(=N)N)cs3)OCCO4)ccc21` (stereo partly drawn) [Compound 110, (8S)—N-((4-carbamimidoylthiophen-2-yl)methyl)-7-((9-methyl-9H-fluorene-3-carbonyl)glycyl)-1,4-dioxa-7-azaspiro[4.4]nonane-8-carboxamide], the IC50 was below 100 nM.
Then `C[C@@H](NC(=O)[C@@H]1CC2(CN1C(=O)CNC(=O)c1ccc3c(c1)-c1ccccc1C3)OCCO2)c1cc(C(=N)N)cs1` [Compound 111, (S)-7-((9H-fluorene-3-carbonyl)glycyl)-N—((R)-1-(4-carbamimidoylthiophen-2-yl)ethyl)-1,4-dioxa-7-azaspiro[4.4]nonane-8-carboxamide], with below 100 nM.
For `C[C@@H](NC(=O)[C@@H]1CC2(CN1C(=O)CNC(=O)c1cccc(-c3ccc(F)cc3)c1)OCCO2)c1cc(C(=N)N)cs1` [Compound 112, (S)—N—((R)-1-(4-carbamimidoylthiophen-2-yl)ethyl)-7-((4′-fluoro-[1,1′-biphenyl]-3-carbonyl)glycyl)-1,4-dioxa-7-azaspiro[4.4]nonane-8-carboxamide], the IC50 was below 100 nM.
Turning to `C[C@@H](NC(=O)[C@@H]1CC2(CN1C(=O)CNC(=O)c1ccc3c(c1)-c1ccccc1C3(F)F)OCCO2)c1cc(-c2ncco2)cs1` [Compound 113, (S)-7-((9,9-difluoro-9H-fluorene-3-carbonyl)glycyl)-N—((R)-1-(4-(oxazol-2-yl)thiophen-2-yl)ethyl)-1,4-dioxa-7-azaspiro[4.4]nonane-8-carboxamide], the IC50 is above 1000 nM.
For `C[C@@H](NC(=O)[C@@H]1CC2(CN1C(=O)CNC(=O)c1ccc3c(c1)-c1ccccc1C3(F)F)OCCO2)c1cc(-c2nccs2)cs1` [Compound 114, (S)-7-((9,9-difluoro-9H-fluorene-3-carbonyl)glycyl)-N—((R)-1-(4-(thiazol-2-yl)thiophen-2-yl)ethyl)-1,4-dioxa-7-azaspiro[4.4]nonane-8-carboxamide], the IC50 was above 1000 nM.
On to `Cc1cc(C(=O)NCC(=O)N2CC3(C[C@H]2C(=O)NCc2cc(C(=N)N)cs2)OCCO3)ccc1-c1ccccc1` [Compound 115, (S)—N-((4-carbamimidoylthiophen-2-yl)methyl)-7-((2-methyl-[1,1′-biphenyl]-4-carbonyl)glycyl)-1,4-dioxa-7-azaspiro[4.4]nonane-8-carboxamide], for which the IC50 is below 100 nM.
Then `N=C(N)c1csc(CNC(=O)[C@@H]2CC3(CN2C(=O)CNC(=O)c2ccc(-c4ccc(C(F)(F)F)cc4)cc2)OCCO3)c1` [Compound 116, (S)—N-((4-carbamimidoylthiophen-2-yl)methyl)-7-((4′-(trifluoromethyl)-[1,1′-biphenyl]-4-carbonyl)glycyl)-1,4-dioxa-7-azaspiro[4.4]nonane-8-carboxamide], with below 100 nM; and `Cc1ccccc1[C@H]1C[C@@H](C(=O)N[C@H](C)c2cc(C(=N)N)cs2)N(C(=O)CNC(=O)c2ccc3c(c2)-c2ccccc2C3(F)F)C1` [Compound 119, (2S,4R)—N—((R)-1-(4-carbamimidoylthiophen-2-yl)ethyl)-1-((9,9-difluoro-9H-fluorene-3-carbonyl)glycyl)-4-(o-tolyl)pyrrolidine-2-carboxamide], with below 100 nM.
